Entries after “also recorded” stand apart in the source; their conditions may differ.
Columns and labels:
[1] = test system: miR-22; experiment: miR-22 expression in HCT116 cells (qRT-PCR); assay type: cell-based; details: 24 hours, RA 10 μM, butyrate 5 mM, propionate 10 mM, valerate 10 mM, SAHA 5 μM
Procedure: To study the effect of RA and HDAC inhibitors on miR-22 expression, HCT116 cells were treated with RA, butyrate, propionate, valerate, and SAHA. The SCFA concentrations used were within physiologic ranges^35.
(§1) Total RNA was extracted with TRIzol Reagent (Invitrogen, Carlsbad, Calif.), and cDNA was generated using High Capacity RNA-to-cDNA Kit (Applied Biosystems, Carlsbad, Calif.). qRT-PCR was performed on ABI 7900HT Fast Real time PCR system using Power SYBR® Green PCR Master Mix (Applied Biosystems, Carlsbad, Calif.).

[2] = test system: retinoic acid receptor beta (RARβ); experiment: RARB expression in HCT116 cells (qRT-PCR); assay type: cell-based; details: 24 hours, RA 10 μM, butyrate 5 mM, SAHA 5 μM
Procedure: as §1

[3] = test system: RARB and NUR77 genes; experiment: ChIP-qPCR: HDAC recruitment and H3K9 acetylation at RARB and NUR77 genes in HCT116 cells; assay type: cell-based; details: RA 10 μM, butyrate 5 mM, SAHA 5 μM
Procedure: Cell lysates were used for ChIP with antibodies specific for HDAC1, HDAC4, SIRT1, or acetylated H3K9, followed by qPCR using primers specific for the RARB and NUR77 genes. DMSO treated cells and IP using IgG were included as negative controls. […]inding was expressed relative to the IgG negative controls.
(§2) Chromatin immunoprecipitation (ChIP)-qPCR ChIP-qPCR was performed as described previously^21. Briefly, chromatin lysate was precleared before incubation with an anti-H3K9AC antibody (Millipore. Billerica, Mass.), anti-HDAC1 and anti-HDAC4 (Cell signaling technology, Beverly, Mass.) or anti-SIRT1 antibody (Santa Cruz Biotechnology, Santa Cruz, Calif.). IgG (Santa Cruz Biotechnology, Santa Cruz, Calif.) and RNA Polymerase II antibody (Millipore, Billerica, Mass.) were used as negative and positive controls, respectively. Samples were incubated with Dynase beads at 4° C. overnight followed by de-crosslinking and purification. DNA fragments generated served as templates for qPCR using Power SYBR1 Green PCR Master Mix.

[4] = test system: NUR77 and RARβ; experiment: Induction and localization of NUR77 and RARβ in HCT116 cells; assay type: cell-based; details: 48 hours, RA 10 μM, butyrate 5 mM, SAHA 5 μM, EGF 32 nM
Procedure: Proteins were immunoprecipitated by anti-NUR77 or anti-RARβ antibodies, or IgG, followed by Western blot using anti-RARβ or anti-NUR77 antibodies.
To study the effect of miR-22 in induction of cytosolic NUR77 by RA/butyrate, adenoviral-delivery of miR-22 inhibitors tagged with green fluorescence (adeno-miR-22 inhibitor-GFP, Applied Biological Materials Inc, Richond, BC) were used to infect HCT116 cells. At 48 hours post adenoviral infection, cells were treated with RA (10 μM) plus butyrate (5 mM) or DMSO for 24 hours. […] Cells were mounted in ProLong® Gold Antifade Reagent with DAPI (4′,6-diamidino-2-phenylindole, Life Technologies, Carlsbad, Calif.) and imaged under Keyence BZ-9000 microscope.

[5] = test system: NUR77; experiment: ChIP-qPCR and RT-PCR: NUR77 binding to BRE and CCND2 and their mRNA; assay type: cell-based; details: HCT116 cells
Procedure: NUR77 and RARβ acetylation status was also studied because protein acetylation alters nuclear receptor activity^37. […] To study the effect of RA/butyrate in modulating NUR77 and RARβ transcriptional activity, ChIP-qPCR and RT-PCR were performed to determine receptor binding to transcriptional regulatory regions and mRNA levels of downstream targets, respectively.
as §2

[6] = test system: Gpr41, Gpr43, Gpr109a, Pgc1α, Pepck, Fas; experiment: Ileal and hepatic mRNA levels in mice after oral gavage; assay type: in vivo, C57BL/6 mice; details: RA 15 mg/kg and/or butyrate 500 mg/kg, oral gavage every other day for one week
[7] = test system: HDAC1, HDAC4, SIRT1, cyclin A2 (CCNA2); experiment: Western blot of protein deacetylases and cyclin A2 in HCT116 cells; assay type: cell-based; details: 24 hours, RA 10 μM, butyrate 5 mM, SAHA 5 μM
[8] = test system: liver cancer cells (Huh7, Hep3B, HepG2); details: cited from earlier work; for Apoptosis of liver cancer cells: published studies
[9] = cited from earlier work
[10] = test system: DLD-1 colon cancer cells; experiment: Cell viability of DLD-1 cells; details: 48 hours, RA 10 μM, butyrate 5 mM, propionate 10 mM, valerate 10 mM, SAHA 5 μM, vs. DMSO
Procedure: HCT116 and DLD-1 colon cancer cells were treated with dimethyl sulfoxide (DMSO) only (as a negative control), RA (10 μM), Fenretinide (10 μM), or an HDAC inhibitor. […] SCFAs were selected from butyrate (5 mM), propionate (10 mM), and valerate (10 mM). Some HCT116 and DLD-1 cells were treated separately with a combination of RA and one of the SCFAs. Cells were treated for 48 hours before viability was assessed.

[11] = test system: liver cancer cells (Huh7, Hep3B, HepG2); experiment: Apoptosis of liver cancer cells; details: prevented by NUR77 siRNA
[12] = cited from earlier work; remark: listed apart in the source
[13] = T2DM and NAFLD patients; cited from earlier work
[14] = test system: miR-22; experiment: miR-22 induction by bile acids, FXR agonist and vitamin D3; details: unpublished data
[15] = test system: primary liver cancer; details: cited from earlier work
[16] = FXR KO mice, depletion of BAs; cited from earlier work
[17] = FXR KO mice: steatohepatitis and liver cancer; assay type: in vivo; details: 10 months old Western diet-fed FXR KO mice; 100 mg/liter in drinking water for three months
Excerpt: The treatment was started when mice were seven months old. Mice were sacrificed when they were ten months old. n>4.
FXR KO mice have increased insulin resistance accompanied by elevated BAs with increased DCA and develop liver cancer when they are about 15 months old (FIG. 24). […] In addition, FXR KO mice also had reduced Erysipelotrichaceae and Coriobacteriaceae, which have many beneficial health effects (FIG. 25A). Consistently, FXR KO mice had reduced bcoA, which generates butyrate, and increased baiJ and dsrA that generate DCA and hydrogen sulfide, respectively (FIG. 25B). Moreover, 10 months old Western diet-fed FXR KO mice developed severe steatohepatitis with massive hepatic lymphocyte infiltration, which could be eliminated by polymyxin B. This exciting finding clearly indicated the role of Gram-negative bacteria in contributing to hepatic inflammation (FIG. 26). […] Because it takes about 10-15 months for FXR KO mice to develop liver cancer, we will introduce Met/β-catenin plasmids by using sleep beauty transposon system into FXR KO mice via hydrodynamic tail vein injection to induce liver cancer. In wild type mice, these plasmids, which have been provided by Dr. Xin Chen at UCSF, can induce liver cancer within a month post-injection. In the presence of dysbiosis and dysregulated BAs, liver cancer formation is expected to be facilitated and may occur even earlier. […]

CC1=C(/C=C/C(C)=C/C=C/C(C)=C/C(=O)O)C(C)(C)CCC1 [RA, all-trans retinoic acid]
miR-22 expression level [1]: upregulated; also recorded: induced miR-22 expression; also recorded: could induce miR-22; also recorded: increased miR-22 level | RARB (RARβ) expression / transcription [2]: upregulated | Recruitment of HDAC4 and SIRT1 to the RARB gene (ChIP-qPCR) [3]: not | Induction and localization of NUR77 and RARβ (immunostaining) [4]: modestly induced both receptors in the nucleus | NUR77 binding to BRE and CCND2 promoter regions and their mRNA levels (NUR77 transcriptional activity) [5]: not RA alone | Expression of Gpr41 and Gpr43 [6]: could induce the expression | Protein levels of HDAC1, HDAC4, SIRT1, and cyclin A2 (CCNA2) [7]: reduced HDAC1, HDAC4, SIRT1, and CCNA2 protein levels | Apoptosis of liver cancer cells [8]: not as effective as fenretinide in inducing apoptosis | Microbiota phenotype, metabolism and liver regeneration ([9]; RA prior to liver resection): lean microbiota phenotype, improved metabolism as well as accelerated liver regeneration | Ratio of Firmicutes to Bacteroidetes ([9]; one day after liver resection): reduced ratio of Firmicutes to Bacteroidetes | Cell viability [10]: reduced cell viability

O=C(CCCCCN1C(=O)c2cccc3cccc(c23)C1=O)NO [Scriptaid]
Apoptosis of Huh7 cells [11]: induced apoptosis of Huh7 cells

CC1=C(/C=C/C(C)=C/C=C/C(C)=C/C(=O)Nc2ccc(O)cc2)C(C)(C)CCC1 [fenretinide, N-(4-hydroxyphenyl) retinamide]
Apoptotic effect in HepG2 ([8]; HepG2 vs. Huh7 and Hep3B): resistant to the apoptotic effect | Apoptosis of liver cancer cells [8]: effectively induces apoptosis of liver cancer cells; also recorded: much better apoptosis inducer than RA | Tumor response ([12]; NCI case report, advanced cutaneous T-cell lymphoma patient): tumor response | Stabilization of the disease ([12]; Phase II, small cell lung cancer): 24 % of the patients | Tolerability ([12]; breast cancer chemoprevention study (3000 patients, 5 year), Phase II small cell lung cancer): well tolerated in humans; also recorded: well tolerated in patients with small cell lung cancer | Apoptosis of Huh7 cells [11]: induced apoptosis of Huh7 cells

CC[C@H]1[C@@H](O)[C@@H]2[C@H](CC[C@]3(C)[C@@H]([C@H](C)CCC(=O)O)CC[C@@H]23)[C@@]2(C)CC[C@@H](O)C[C@@H]12 [obetacholic acid]
Insulin sensitivity, liver inflammation and fibrosis [13]: improves insulin sensitivity and reduces liver inflammation as well as fibrosis | miR-22 induction [14]: effective in inducing miR-22

CNC(=O)c1cc(Oc2ccc(NC(=O)Nc3ccc(Cl)c(C(F)(F)F)c3)cc2)ccn1 [sorafenib]
Increase of survival [15]: 6 months

cholestyramine
Liver cancer formation [16]: prevented liver cancer formation

polymyxin B
Severe steatohepatitis with massive hepatic lymphocyte infiltration [17]: eliminated

From patent US20190307771A1, “METHODS AND COMPOSITIONS FOR THE TREATMENT OF CANCER AND METABOLIC DISEASES” (THE REGENTS OF THE UNIVERSITY OF CALIFORNIA, priority 2016, published 2019)
